Laboratory results as given in patent US20240287172A1, “PROTEIN BINDERS TO IRHOM2 EPITOPES” (SCIRHOM GMBH, priority 2019, published 2024).

Columns and labels:
[1] = system: PMA-induced release of endogenous HB-EGF from human THP-1 monocytic cells; assay: ELISA-based HB-EGF release assay, PMA-induced, THP-1 cells; format: cell-based; settings: PMA 25 ng/ml, 6 hours, murine (m) and chimeric (ch) antibodies and IgG at 3 μg/ml, Batimastat at 10 μM
Protocol: (§1) In brief, on day 1, Nunc black MaxiSorp® 96-well plates (Thermo Fisher Scientific, USA) were coated for 7 hours with 100 μl per well of rat anti-human HB-EGF capture antibody (provided as part of the DuoSet ELISA kit) at 2 μg/ml TBS at room temperature. Capture antibody solution was removed and MaxiSorp® plates were blocked with 300 μl per well of TBS, 1% BSA at room temperature for 3 hours. […]
(§2) Following another round of 4 times washing with 350 μl TBS-T (Carl Roth, Germany) per well on a 96-head plate washer (Tecan Group, Switzerland) and careful removal of all buffer traces after the fourth cycle, 100 μl AttoPhos substrate solution (Promega, USA) per well was added for incubation in the dark at room temperature for 1 hour. Using an infinite M1000 (Tecan Group, Switzerland) microplate reader, the fluorescence of each well was collected at an excitation wavelength of 435 nm and an emission wavelength of 555 nm.

[2] = system: PMA-induced release of endogenous HB-EGF from human U-937 cells; assay: ELISA-based HB-EGF release assay, PMA-induced, U-937 cells; format: cell-based; settings: PMA 25 ng/ml, 6 hours, murine (m) and chimeric (ch) antibodies and IgG at 3 μg/ml, Batimastat at 10 μM
Protocol: as §1
as §2, with “nm. […]” for “nm.”

## CNC(=O)[C@H](Cc1ccccc1)NC(=O)[C@H](CC(C)C)[C@H](CSc1cccs1)C(=O)NO [Batimastat]
[1]
  inhibition at 10 µM: 98.9%
[2]
  inhibition at 10 µM: 100%
